# Laboratory results published in US8859574B2 (IRM LLC, priority 2008, dated 2014).
# pIC50: −log10 of the molar value.
# Biological target: T1, IGF-1R Ba/F3 (Homo sapiens, UniProt P08069)
# T1 construct: fused on or other part: TEL- (or BCR-) IGF-1R in Ba/F3: the kinase part holds the site
# Assay: Ba/F3 Cell Viability Inhibition Assay (IGF-1R Ba/F3)
# Assay type: cell-based, murine
# Settings: Tel-TK transformed Ba/F3 cells, 48 hours, Britelite luminescence
# Outline: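 IL-3-independent murine Ba/F3 cells transformed with a TEL/BCR-fused IGF-1R kinase were seeded at 3750 cells/well and exposed to serially diluted compound for 48 h at 37 °C. Viability was read by Britelite luminescence. IC50 is the concentration giving 50% of DMSO-control viability, from a logistic fit.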
# T1 sequence (P08069 999-1274 limits assumed): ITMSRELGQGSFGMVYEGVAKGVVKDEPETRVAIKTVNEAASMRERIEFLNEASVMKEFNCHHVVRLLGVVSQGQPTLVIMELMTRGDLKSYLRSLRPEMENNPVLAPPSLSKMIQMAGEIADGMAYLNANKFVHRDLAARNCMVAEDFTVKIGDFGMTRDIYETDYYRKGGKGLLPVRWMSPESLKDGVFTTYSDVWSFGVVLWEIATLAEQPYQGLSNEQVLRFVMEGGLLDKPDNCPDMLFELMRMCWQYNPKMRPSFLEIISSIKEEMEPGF
row,SMILES,pIC50
1,"Cc1cc(Nc2nc(Nc3cc(C)c(C4CCCN(C(=O)C5(N)CC5)C4)cc3C)ncc2Cl)n[nH]1 (centres unmarked) [Compound 187, (1-aminocyclopropyl)(3-(4-(5-chloro-4-(5-methyl-1H-pyrazol-3-ylamino)pyrimidin-2-ylamino)-2,5-dimethylphenyl)piperidin-1-yl)methanone]",7.02
2,"Cc1cc(Nc2nc(Nc3cc(C)c(C4CCN(S(=O)(=O)CCCN5CC[C@@H](O)C5)CC4)cc3C)ncc2Cl)n[nH]1 [Compound 234, (R)-1-(3-(4-(4-(5-chloro-4-(5-methyl-1H-pyrazol-3-ylamino)pyrimidin-2-ylamino)-2,5-dimethylphenyl)piperidin-1-ylsulfonyl)propyl)pyrrolidin-3-ol]",7.14
3,"Cc1cc(Nc2nc(Nc3cc(C)c(C4CCN(Cc5noc(C)n5)CC4)cc3C)ncc2Cl)n[nH]1 [Compound 304, 5-chloro-N2-(2,5-dimethyl-4-(1-((5-methyl-1,2,4-oxadiazol-3-yl)methyl)piperidin-4-yl)phenyl)-N4-(5-methyl-1H-pyrazol-3-yl)pyrimidine-2,4-diamine]",8.30
4,"Cc1cc(Nc2nc(Nc3cc(C)c(C4CCN(Cc5ccnnc5)CC4)cc3C)ncc2Cl)n[nH]1 [Compound 21, 5-chloro-N2-(2,5-dimethyl-4-(1-(pyridazin-4-ylmethyl)piperidin-4-yl)phenyl)-N4-(5-methyl-1H-pyrazol-3-yl)pyrimidine-2,4-diamine]",8.70
5,"Cc1noc(CN2CCC(c3cc(F)c(Nc4ncc(Cl)c(Nc5cc(C)[nH]n5)n4)cc3C)CC2)n1 [Compound 293, 5-chloro-N2-(2-fluoro-5-methyl-4-(1-((3-methyl-1,2,4-oxadiazol-5-yl)methyl)piperidin-4-yl)phenyl)-N4-(5-methyl-1H-pyrazol-3-yl)pyrimidine-2,4-diamine]",7.59
6,"Cc1cc(Nc2nc(Nc3cc(C(F)(F)F)c(N4CCOCC4)cc3F)ncc2Cl)n[nH]1 [Compound 153, 5-chloro-N2-(2-fluoro-4-morpholino-5-(trifluoromethyl)phenyl)-N4-(5-methyl-1H-pyrazol-3-yl)pyrimidine-2,4-diamine]",7.04
7,"Cc1cc(Nc2nc(Nc3cc(C(F)(F)F)c(C4CCN(CC(N)=O)CC4)cc3C)ncc2Cl)n[nH]1 [Compound 47, 2-(4-(4-(5-chloro-4-(5-methyl-1H-pyrazol-3-ylamino)pyrimidin-2-ylamino)-5-methyl-2-(trifluoromethyl)phenyl)piperidin-1-yl)acetamide]",7.66
8,"Cc1cc(Nc2nc(Nc3cc(C)c(C4CCN(CCCS(=O)(=O)N5CCOCC5)CC4)cc3F)ncc2Cl)n[nH]1 [Compound 245, 5-chloro-N2-(2-fluoro-5-methyl-4-(1-(3-(morpholinosulfonyl)propyl)piperidin-4-yl)phenyl)-N4-(5-methyl-1H-pyrazol-3-yl)pyrimidine-2,4-diamine]",7.11
9,"Cc1cc(C2CCNCC2)c(C)cc1Nc1ncc(Cl)c(Nc2cc(C(F)(F)F)[nH]n2)n1 [Compound 215, 5-chloro-N2-(2,5-dimethyl-4-(piperidin-4-yl)phenyl)-N4-(5-(trifluoromethyl)-1H-pyrazol-3-yl)pyrimidine-2,4-diamine]",7.33
10,"Cc1cc(Nc2nc(Nc3cc(C)c(C4CCN(CCC(F)(F)F)CC4)cc3C)ncc2Cl)n[nH]1 [Compound 25, 5-chloro-N2-(2,5-dimethyl-4-(1-(3,3,3-trifluoropropyl)piperidin-4-yl)phenyl)-N4-(5-methyl-1H-pyrazol-3-yl)pyrimidine-2,4-diamine]",7.51
11,"Cc1cc(Nc2nc(Nc3cc(C)c(C4CCN(C(=O)C5CNC5)CC4)cc3F)ncc2Cl)n[nH]1 [Compound 131, Azetidin-3-yl(4-(4-(5-chloro-4-(5-methyl-1H-pyrazol-3-ylamino)pyrimidin-2-ylamino)-5-fluoro-2-methylphenyl)piperidin-1-yl)methanone]",5.90
